Measurements: PubChem BioAssay (NCI)
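Method: 48-hour compound exposure of cells in 96-well plates, five concentrations, linear interpolation of endpoints. GI50 is the concentration that inhibits growth by half. The concentration for full growth arrest is given as TGI.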

Key:
Assay in all cases: NCI tumour cell line growth inhibition, 48 h
A498 renal = tested on: A498 renal
ACHN renal = tested on: ACHN renal
CAKI-1 renal = tested on: CAKI-1 renal
COLO 205 colon = tested on: COLO 205 colon
LOX IMVI melanoma = tested on: LOX IMVI melanoma
MOLT-4 leukemia = tested on: MOLT-4 leukemia
SNB-19 CNS = tested on: SNB-19 CNS
SR leukemia = tested on: SR leukemia
UACC-257 melanoma = tested on: UACC-257 melanoma
UACC-62 melanoma = tested on: UACC-62 melanoma
HS 578T breast = tested on: HS 578T breast
MDA-N = tested on: MDA-N

Structure (SMILES) | TGI (A498 renal) [µM] | TGI (ACHN renal) [µM] | TGI (CAKI-1 renal) [µM] | TGI (COLO 205 colon) [µM] | TGI (LOX IMVI melanoma) [µM] | TGI (MOLT-4 leukemia) [µM] | TGI (SNB-19 CNS) [µM] | TGI (SR leukemia) [µM] | TGI (UACC-257 melanoma) [µM] | TGI (UACC-62 melanoma) [µM] | TGI (HS 578T breast) [µM] | TGI (MDA-N) [µM] | GI50 (UACC-257 melanoma) [µM]
Cc1nc2ccccc2nc1NS(=O)(=O)c1ccc(N)cc1 | > 100 | > 100 | > 100 | > 100 | > 100 | > 100 | > 100 | > 100 | > 100 | > 100 | – | – | –
O=S(=O)(CC1=NC2C=CC=CC2N=C1)NCc1ccccc1 (stereo unspecified) | > 100 | > 100 | > 100 | > 100 | > 100 | > 100 | > 100 | – | – | > 100 | – | – | –
Cc1ccc(-c2c(C#N)c(-c3ccc(N(C)C)cc3)c(C#N)c(=O)n2NS(=O)(=O)c2ccccc2)cc1 | > 100 | > 100 | 98.3 | > 100 | > 100 | 52.8 | > 100 | – | > 100 | > 100 | > 100 | > 100 | –
N#Cc1c(-c2ccccc2)c(C#N)c(=O)n(NS(=O)(=O)c2ccccc2)c1O | > 100 | > 100 | > 100 | > 100 | > 100 | > 100 | > 100 | – | > 100 | > 100 | > 100 | > 100 | –
CCCOC(=O)c1cc(C(=CCC[C@H]2CC[C@@]3(C)[C@@H](CC[C@@H]4[C@@H]3CC[C@]3(C)[C@@H](C(C)CCCC(C)C)CC[C@@H]43)C2)c2cc(Cl)c(O)c(C(=O)OCCC)c2)cc(Cl)c1O (stereo partly specified) | > 50 | – | > 50 | > 50 | > 50 | > 50 | > 50 | – | – | > 50 | > 50 | > 50 | –
Cc1ccc(S(=O)(=O)N(c2ccccc2F)C2CCCCC2O)cc1 (stereo unspecified) | > 100 | > 100 | – | 71.3 | > 100 | – | > 100 | 51.8 | 5.64 | > 100 | > 100 | 50.1 | –
NN/C(=N\S(=O)(=O)c1cc(Cl)c(Oc2ccc([N+](=O)[O-])cc2Cl)c(Cl)c1)Nc1ccc(Cl)cc1 | 64.4 | 67.4 | 40.7 | 29 | 45 | 85.8 | 62.4 | 57.7 | 34.6 | 28.8 | – | 33 | –
CC1C2CC(C(C3C(=O)C4CC3C(C)(C)C4C)C2=O)C1(C)C (stereo unspecified) | > 100 | > 100 | > 100 | > 100 | – | > 100 | > 100 | > 100 | > 100 | > 100 | > 100 | > 100 | –
CC(=O)Nc1ccc(-c2nnc(SCC(=O)Nc3ccccc3Cl)o2)cc1 | > 100 | > 100 | > 100 | > 100 | > 100 | > 100 | > 100 | – | > 100 | – | – | – | –
O=C1/C(=C/c2cccc([N+](=O)[O-])c2)CCCc2ccccc21 | – | 26.6 | 30.1 | 32.8 | 16.5 | 34 | 28.5 | 11 | 30.2 | 21.6 | 25.9 | 22.7 | –
Cc1[nH]c2ncn(/N=C/c3ccccc3)c(=N)c2c1Cc1ccccc1 | > 100 | > 100 | > 100 | > 100 | > 100 | > 100 | > 100 | – | > 100 | > 100 | > 100 | > 100 | –
CCCCOC(=O)/C(CC(=O)C=C(C)C)=N\NS(=O)(=O)c1ccc(C)cc1 | > 100 | > 100 | > 100 | > 100 | > 100 | > 100 | > 100 | 71.8 | > 100 | > 100 | – | – | –
Cc1ccc(S(=O)(=O)N/N=C2\C(=O)C3CC2C(Cl)C3Cl)cc1 (stereo unspecified) | > 100 | > 100 | > 100 | > 100 | > 100 | > 100 | > 100 | > 100 | > 100 | > 100 | – | – | –
C1CSCC2(COC2)CS1 | > 100 | > 100 | – | > 100 | > 100 | > 100 | > 100 | > 100 | > 100 | – | > 100 | > 100 | –
CC(C)=CCC/C(C)=C/Cc1cc(/C=C/c2cc(O)c(CC=C(C)C)c(O)c2)cc(O)c1O | 20.6 | 3.19 | 16.9 | 33.4 | 7 | 11.8 | 16.6 | – | 5.2 | 9.88 | 26.8 | 12.1 | –
O=c1c2cc(I)ccc2nc(-c2cccs2)n1Nc1ccccc1 | – | > 100 | 65.9 | 3.66 | > 100 | > 100 | 76.6 | > 100 | > 100 | > 100 | – | – | 32.3
C1=CCN(c2ccccc2)CC1 | > 100 | 56.8 | – | > 100 | > 100 | > 100 | > 100 | > 100 | > 100 | > 100 | – | – | –
CSC1=N/C(=C\c2cccs2)C(=O)N1CN1CCCCC1 | > 100 | > 100 | – | > 100 | 75.6 | > 100 | – | > 100 | – | > 100 | > 100 | > 100 | –
Nc1ccc(N=Nc2ccc(/C=C/c3ccc(N=Nc4ccc(N)c5ccc(S(=O)(=O)O)cc45)cc3S(=O)(=O)O)c(S(=O)(=O)O)c2)c2cc(S(=O)(=O)O)ccc12 | > 100 | – | – | > 100 | > 100 | > 100 | > 100 | – | > 100 | > 100 | – | – | –
O=C1/C(=C/c2cccc([N+](=O)[O-])c2)COc2ccccc21 | > 84.4 | 8.04 | > 100 | > 100 | 3.44 | 6.62 | 9.07 | – | > 64.7 | 3.19 | – | – | –
CCCCCCC(N)(CCCCCC)C(=O)Nn1c(C)ccc1C | > 100 | > 100 | – | > 100 | – | > 100 | > 100 | > 100 | > 100 | > 100 | > 100 | > 100 | –
